{"source": "patent US9999621B2", "about": "“Medical use of artemisinin compounds and gephyrin agonists” (CeMM-Forschungszentrum für Molekulare Medizin GmbH, priority 2014, dated 2018)", "key": {"alphaTC1 cells": {"test_system": "alphaTC1 cells", "test": "Insulin expression in alpha cell line, immunofluorescence", "format": "cell-based, mouse", "details": "for insulin expression in alpha cells: alphaTC1 cells, immunofluorescence"}, "[1]": {"test_system": "Min6 cells overexpressing ARX", "test": "High-throughput screen for functional repressors of ARX, insulin immunofluorescence", "format": "cell-based, mouse", "description": "Mouse pancreatic cell lines αTC1 (provided by Novo Nordisk) and βTC3 (provided by Novo Nordisk) were grown in low-glucose DMEM supplemented by 10% FBS, 50 U/mL penicillin and 50 μg/mL streptomycin. Mouse pancreatic cell lines Min6 (provided by Novo Nordisk) with Doxycycline inducible construct was grown in high-glucose DMEM supplemented by 15% Tet System Approved FBS (Clonetech 631106), 71 uM 2-mercaptoethanol, 50 U/mL penicillin and 50 ug/mL streptomycin. The cell culture for human islets followed established protocols (Walpita et al., 2012).\nCompounds (50 nL) were transferred to black optical suitable 384-well plate (Corning 3712) from DMSO stock plates using acoustic transfer (Labcyte Inc.). Min6 cells (3000 cells per well) were plated in 50 ul media on top of the compounds. Three days after treatment, cells were fixed in 3.7% formaldehyde for ten minutes at room temperature. Following PBS washing, cells were fixed with cold pure methanol at −20° C. for 10 minutes, permeabilized by 1% Triton X-100 in PBS for 30 minutes and blocked by 3% BSA in PBS for 30 minutes. Twenty microliters of primary anti-insulin antibody, diluted in 1:2000 in 1.5% BSA, was added per well and incubated in 4° C. overnight. […]\nImages were taken by an automated microscope (Perkin Elmer Operetta) using a 20× objective. […] Images were analyzed by the Harmony (Perkin Elmer) software. […]"}, "gephyrin [2]": {"target": "T1, gephyrin (Mus musculus, UniProt Q8BUV3)", "T1 sequence (Q8BUV3 1-769)": "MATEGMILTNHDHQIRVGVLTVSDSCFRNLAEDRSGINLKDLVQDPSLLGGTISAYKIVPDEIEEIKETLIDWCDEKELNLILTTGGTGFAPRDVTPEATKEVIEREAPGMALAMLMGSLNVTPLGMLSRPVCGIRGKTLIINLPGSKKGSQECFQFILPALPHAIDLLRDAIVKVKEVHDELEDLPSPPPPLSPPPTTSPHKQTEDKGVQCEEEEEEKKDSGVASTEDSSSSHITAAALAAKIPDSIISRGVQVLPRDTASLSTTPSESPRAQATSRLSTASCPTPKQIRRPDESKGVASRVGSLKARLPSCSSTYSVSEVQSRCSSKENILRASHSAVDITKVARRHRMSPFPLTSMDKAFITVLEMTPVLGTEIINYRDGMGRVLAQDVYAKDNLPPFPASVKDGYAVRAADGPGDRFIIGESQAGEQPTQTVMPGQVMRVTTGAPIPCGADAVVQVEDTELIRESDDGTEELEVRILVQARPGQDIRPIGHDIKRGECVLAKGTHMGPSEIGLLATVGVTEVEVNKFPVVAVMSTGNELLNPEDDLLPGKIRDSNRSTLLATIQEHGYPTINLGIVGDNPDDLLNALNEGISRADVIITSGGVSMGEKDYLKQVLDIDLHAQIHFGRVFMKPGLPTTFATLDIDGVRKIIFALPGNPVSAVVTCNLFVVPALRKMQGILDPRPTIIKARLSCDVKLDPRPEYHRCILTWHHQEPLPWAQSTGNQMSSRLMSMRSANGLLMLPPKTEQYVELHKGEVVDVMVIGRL", "test": "Gephyrin protein levels in alpha cells, Western blot and immunofluorescence", "format": "cell-based", "set-up": "endogenous in cells; host or cells: aTC1 mouse pancreatic alpha cell line", "details": "alpha cell line", "description": "Whole cell extracts were generated by lysing cells in NP-40 buffer containing 150 mM sodium chloride, 1.0% NP-40 and 50 mM Tris, pH 8.0 supplemented by Protease Inhibitor Cocktail (Roche). The whole-cell lysate (30 μg) was loaded onto a SDSpolyacrylamide gel for electrophoresis at 30 mA per gel, and then transferred by electrophoresis to a nitrocellulose membrane (GE Healthcare Life Science). All the blots were incubated with the corresponding primary antibodies diluted in 1:1000 in 5% milk at 4° C. overnight and with HRP-labeled secondary antibodies (diluted 1:20000) for 1 h. The signals were detected using ECL Prime Western blotting Detection Reagent (Amersham)."}, "gephyrin [3]": {"target": "T1, gephyrin", "test": "Chemical proteomics pull-down with artesunate matrix, competition by free artemether", "format": "binding", "set-up": "using 10 mg total cell lysate as protein input per replicate; endogenous in cells; host or cells: cell lysate", "details": "artesunate coupled to solid support, with and without competing free artemether", "description": "(§1) Drug-affinity matrices were prepared essentially as described previously (Huber et al, 2014). Briefly, ethylenediamine (2.7 μL, 40 μmol), ethanolamine (9.7 μL, 160 μmol), and triethylamine (15 μL, 108 μmol) were added to 500 μL NHS-activated Sepharose 4 Fast Flow beads (GE Healthcare Bio-Sciences AB, Uppsala, Sweden) and the reaction was put on a rotary shaker for 24 h. Beads were washed and resuspended in DMSO and NHS-activated artesunate (100 μL, 1.00 μmol) was added to the suspension, and the mixture was put on a rotary shaker for 24 h. Unreacted beads were blocked by addition of NHS-acetate (10 μmol) and triethylamine (25 μL, 180 μmol), followed by agitation on a rotary shaker for 24 h. After washing with DMSO and lysis buffer, beads were incubated with cell lysates.\n(§2) Affinity chromatography and elution were performed in duplicate as reported previously (Huber et al, 2014), using 10 mg total cell lysate as protein input per replicate. […]\n(§3) The initial peptide identifications were used to deduce independent linear transformations for precursor and fragment masses that would minimize the mean square deviation of measured masses from theoretical. […] A false discovery rate (FDR) of <1% for protein identifications and <0.1% for peptides (including the ones exported with lower scores) was determined by applying the same procedure against a database of reversed protein sequences. […]"}, "CUL3": {"test_system": "CUL3", "test": "Chemical proteomics pull-down with artesunate matrix, competition by free artemether", "format": "binding, mouse", "details": "artesunate coupled to solid support, with and without competing free artemether", "description": "as §1, §2, §3"}, "Btbd9": {"target": "T2, Btbd9 (Mus musculus, UniProt Q8C726)", "T2 construct": "using 10 mg total cell lysate as protein input per replicate; endogenous in cells; host or cells: cell lysate", "T2 sequence (Q8C726 1-612)": "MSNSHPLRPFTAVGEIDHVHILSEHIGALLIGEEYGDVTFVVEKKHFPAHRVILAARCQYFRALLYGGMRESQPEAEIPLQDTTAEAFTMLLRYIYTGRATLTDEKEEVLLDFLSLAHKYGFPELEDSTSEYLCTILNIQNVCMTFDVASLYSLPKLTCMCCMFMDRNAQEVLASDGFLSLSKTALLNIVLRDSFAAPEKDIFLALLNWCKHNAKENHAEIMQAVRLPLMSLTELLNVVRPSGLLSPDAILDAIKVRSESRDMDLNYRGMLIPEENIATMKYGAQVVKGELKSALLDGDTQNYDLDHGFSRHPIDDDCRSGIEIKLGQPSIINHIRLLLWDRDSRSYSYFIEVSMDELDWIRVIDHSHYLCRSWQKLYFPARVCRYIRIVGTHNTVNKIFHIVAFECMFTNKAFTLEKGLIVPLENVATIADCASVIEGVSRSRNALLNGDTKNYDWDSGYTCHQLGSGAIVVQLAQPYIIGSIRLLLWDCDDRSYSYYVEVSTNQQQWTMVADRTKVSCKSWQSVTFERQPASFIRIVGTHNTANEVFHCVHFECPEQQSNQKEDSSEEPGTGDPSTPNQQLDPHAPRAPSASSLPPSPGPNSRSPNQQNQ", "test": "Chemical proteomics pull-down with artesunate matrix, competition by free artemether", "format": "binding", "details": "artesunate coupled to solid support, with and without competing free artemether", "description": "as §1, §2, §3"}, "aTC1 cells": {"test_system": "aTC1 cells", "test": "GABAR antagonists combined with artemether, insulin immunofluorescence", "format": "cell-based, mouse"}}, "note": "Like-named read-outs stand apart in the source and are kept apart here.", "data": [{"molecule": "COC1OC2OC3(C)CCC4C(C)CCC(C1C)C24O3", "note": "(centres unmarked) [Deoxyartemether]", "values": [{"measurement": "insulin expression in alpha cells", "setting": "alphaTC1 cells", "value": "no effects"}]}, {"molecule": "CO[C@H]1O[C@@H]2O[C@@]3(C)CC[C@H]4[C@H](C)CC[C@@H]([C@H]1C)[C@@]24OO3", "note": "[artemether]", "values": [{"measurement": "EC50", "setting": "[1]; Mus musculus, Min6 cells overexpressing ARX, dose response, immunofluorescence (FIG. 3c), read-out: half maximum effective concentration", "value": "< 1", "unit": "µM"}, {"measurement": "EC50", "setting": "alphaTC1 cells; Mus musculus, 72 h, alpha cells, inducing insulin expression, immunofluorescence (FIG. 3d), read-out: half maximum effective concentration", "value": "< 10", "unit": "µM"}]}, {"molecule": "C[C@@H]1CC[C@H]2[C@@H](C)C(=O)O[C@@H]3O[C@@]4(C)CC[C@@H]1[C@]32OO4", "note": "[artemisinin, (3R,5aS,6R,8aS,9R,12S,12aR)-octahydro-3,6,9-trimethyl-3,12-epoxy-12H-pyrano[4,3-j]-1,2-benzodioxepin-10(3H)-one]", "values": [{"measurement": "gephyrin protein levels", "setting": "gephyrin [2]", "value": "dose-dependent increase"}]}, {"molecule": "C[C@H]1[C@H](OC(=O)CCC(=O)O)O[C@@H]2O[C@@]3(C)CC[C@H]4[C@H](C)CC[C@@H]1[C@@]24OO3", "note": "[artesunate]", "values": [{"measurement": "insulin levels in the presence of ARX (ARX overexpression phenotype)", "setting": "[1]; Min6 cells induced to overexpress ARX, 72 hours, immunofluorescence", "value": "active"}, {"measurement": "insulin expression in alpha cells", "setting": "alphaTC1 cells", "value": "active"}, {"measurement": "specific interactor identified by mass spectrometry", "setting": "gephyrin [3]", "value": "top specific interactor"}, {"measurement": "enrichment in pull-down", "setting": "CUL3", "value": "strong enrichment"}, {"measurement": "enrichment in pull-down", "setting": "Btbd9", "value": "strong enrichment"}]}, {"molecule": "CCO[C@H]1O[C@@H]2O[C@@]3(C)CC[C@H]4[C@H](C)CC[C@@H]([C@H]1C)[C@@]24O3", "note": "[deoxyarteether]", "values": [{"measurement": "insulin expression in alpha cells", "setting": "alphaTC1 cells", "value": "inactive"}]}, {"molecule": "COc1ccc(-c2ccc(=N)n(CCCC(=O)O)n2)cc1", "note": "[gabazine]", "values": [{"measurement": "effect of GABAR antagonist on the effects of artemether", "setting": "aTC1 cells", "value": "inhibited the effects of artemether"}, {"measurement": "effect of GABAR antagonist on the effects of artemether", "setting": "aTC1 cells; listed as Gabazine", "value": "inhibits the effects of Artemether"}]}, {"molecule": "Cc1ccsc1C(=CCCN1CCC[C@@H](C(=O)O)C1)c1sccc1C", "note": "[thiagabine]", "values": [{"measurement": "insulin expression in alpha cells", "setting": "alphaTC1 cells", "value": "increased the insulin expression"}, {"measurement": "insulin expression in alpha cells", "setting": "alphaTC1 cells; listed as Thiagabine", "value": "increases insulin production"}]}]}
